# Tests used:
# [1] = Lipophilicity, log D of the compound at pH 7.4 by RP-HPLC analysis; format: physicochemical; settings: buffer
# [2] = Oral bioavailability in Beagle dog at 3 mg/kg administered via spray-dried dispersion measured over 24 hrs by LC-MS/MS analysis; format: ADME, organism-based, Canis lupus familiaris; settings: in vivo
# [3] = Oral bioavailability in Wistar Han rat at 3 mg/kg administered via spray-dried dispersion by LC-MS/MS analysis; format: ADME, organism-based; settings: in vivo
# [4] = Thermodynamic solubility of the compound at pH 6.5; format: physicochemical; settings: buffer, read-out: Therm_solubility
# [5] = Volume of distribution at steady state in Wistar Han rat at 1 mg/kg, iv or 3 mg/kg, po via gavage by LC-MS/MS analysis; format: ADME, organism-based; settings: in vivo, read-out: Vdss
# [6] = Volume of distribution at steady state in Balb/c mouse at 1 mg/kg, iv or 30 mg/kg, po via gavage by LC-MS/MS analysis; format: ADME, organism-based; settings: in vivo, read-out: Vdss
# [7] = Oral bioavailability in Wistar Han rat at 3 mg/kg administered as crystalline solid by LC-MS/MS analysis; format: ADME, organism-based; settings: in vivo
# [8] = Volume of distribution at steady state in Beagle dog at 1 mg/kg, iv or 3 mg/kg, po via gavage by LC-MS/MS analysis; format: ADME, organism-based, Canis lupus familiaris; settings: in vivo, read-out: Vdss
# [9] = Apparent permeability in RRCK cells; format: ADME, cell-based, Canis lupus familiaris, MDCKII-LE; settings: dog, MDCK
# [10] = Oral bioavailability in Balb/c mouse at 30 mg/kg administered via spray-dried dispersion by LC-MS/MS analysis; format: ADME, organism-based; settings: in vivo
SMILES,logD [1],other results
CC(C)C(=O)N1CCC(c2cn(C)c3ncc(NC(=O)c4cccc(C#N)c4)c(C(C)C)c23)CC1,2.6,–
CC(=O)N1CCC(c2cn(C)c3ncc(NC(=O)c4cccc(C#N)c4)c(C)c23)CC1,1.6,–
CC(C)C(=O)N1CCC(c2cn(C)c3ncc(NC(=O)c4cccc(C#N)c4)c(C(F)(F)F)c23)CC1,3.7,bioavailability [2]: 73%; bioavailability [3]: 83%; solubility thermodynamic [4]: 1 µM; Vd [5]: 1.4 L/kg; Vd [6]: 0.8 L/kg; bioavailability [7]: 21%; Vd [8]: 1.5 L/kg; Papp [9]: 13.2 ×10⁻⁶ cm/s; bioavailability [10]: 30%
Cc1c(NC(=O)c2cccc(C#N)c2)cnc2c1c(C1CCN(C(=O)C3CCOC3)CC1)cn2C (centres undefined),1.6,–
Cc1c(NC(=O)c2cccc(C#N)c2)cnc2c1c(C1CCN(C(=O)C3CCC3)CC1)cn2C,2.6,–
Cn1cc(C2CCN(C(=O)C3CCCC3)CC2)c2cc(NC(=O)c3cccc(C#N)c3)cnc21,3.8,–
Cn1cc(C2CCN(C(=O)C3CCCC3)CC2)c2cc(NC(=O)c3cc(C#N)ccn3)cnc21,3.7,–
Cc1c(NC(=O)c2ccc(Cl)c(C#N)c2)cnc2c1c(C1CCN(C(=O)C(C)C)CC1)cn2C,3.6,–
Cc1c(NC(=O)c2cccc(C#N)c2)cnc2c1c(C1CCN(C(=O)C3CCCCC3)CC1)cn2C,3.9,–
Cc1c(NC(=O)c2cccc(C#N)c2)cnc2c1c(C1CCN(C(=O)CC3CC3)CC1)cn2C,2.4,–
CCC(=O)N1CCC(c2cn(C)c3ncc(NC(=O)c4cccc(C#N)c4)c(C)c23)CC1,2,–
Cc1c(NC(=O)c2ccc(F)c(C#N)c2)cnc2c1c(C1CCN(C(=O)C(C)C)CC1)cn2C,2.3,–
Cn1cc(C2CCN(C(=O)C3CCCC3)CC2)c2nc(NC(=O)c3cc(C#N)ccn3)ccc21,4.2,–
Cc1noc(C)c1C(=O)N1CCC(c2cn(C)c3ncc(NC(=O)c4cccc(C#N)c4)c(C)c23)CC1,2,–
Cn1cc(C2CCN(C(=O)C3CCCC3)CC2)c2cc(NC(=O)c3cc(C#N)ccn3)ccc21,4.3,–
Cc1c(NC(=O)c2cccc(C#N)c2)cnc2c1c(C1CCN(C(=O)C3CCCC3)CC1)cn2C,2.9,–
COc1ccc(C(=O)Nc2cnc3c(c(C4CCN(C(=O)C(C)C)CC4)cn3C)c2C)cc1C#N,2.4,–
COc1c(NC(=O)c2cccc(C#N)c2)cnc2c1c(C1CCN(C(=O)C(C)C)CC1)cn2C,2,–
Cc1c(NC(=O)c2cccc(C#N)c2)ccc2c1c(C1CCN(C(=O)C3CCCC3)CC1)cn2C,4,–
Cc1cccc(F)c1C(=O)N1CCC(c2cn(C)c3ncc(NC(=O)c4cccc(C#N)c4)c(C)c23)CC1,3.1,–
Cc1ccc(C(=O)Nc2cnc3c(c(C4CCN(C(=O)C(C)C)CC4)cn3C)c2C)cc1C#N,2.3,–
Cn1cc(C2CCN(C(=O)C3CCCC3)CC2)c2cc(NC(=O)c3cccc(C#N)c3)ccc21,4.4,–
Cc1c(NC(=O)c2cccc(C#N)c2)cnc2c1c(C1CCN(C(=O)CC(C)C)CC1)cn2C,2.5,–
Cc1c(NC(=O)c2cccc(C#N)c2)cnc2c1c(C1CCN(C(=O)C3CC3)CC1)cn2C,2.3,–
Cc1c(NC(=O)c2cccc(C#N)c2)cnc2c1c(C1CCN(C(=O)C(C)C)CC1)cn2C,2,–

# — ChEMBL document CHEMBL4265880, “Discovery of 3-Cyano- N-(3-(1-isobutyrylpiperidin-4-yl)-1-methyl-4-(trifluoromethyl)-1 H-pyrrolo[2,3- b]pyridin-5-yl)benzamide: A Potent, Selective, and Orally Bioavailable Retinoic Acid Receptor-Related Orphan Receptor C2 Inverse Agonist” (J Med Chem, 2018)
